# Source: patent US20260297092A1, “PYRAZOLOPYRIMIDINE DERIVATIVES AS INHIBITORS OF NLRP3” (Takeda Pharmaceutical Company Limited, priority 2023, published 2026)
# System: NLRP3 inflammasome (IL-1β production in THP-1 cells)
# Assay: IL-1β TR-FRET Assay (percentage of inhibition at 300 nM, 6 μM or 10 μM)
# Format: cell-based, human
# Conditions: Homo sapiens, THP-1, 300 nM, LPS priming, ATP activation, read-out: IL-1β inhibitory rate at 300 nM (%)
# Experimental: The biological activity of the compound of Formula 1 with respect to NLRP3 was determined using the following in vitro method.
# IL-1β TR-FRET Assay (reported as percentage of inhibition at 300 nM, 6 μM or 10 μM)
# Monocytic THP-1 cells (ATCC: TIB-202) were maintained in accordance with the provider's instructions in RPMI media (Life Technologies, Cat #A10491-01); RPMI was supplemented with 10% heat inactivated fetal bovine serum (Corning, Cat #35-010-CV). The cells were differentiated into macrophages by the addition of 25 ng/mL IFN-γ (PeproTech, Cat #AF-300-02-100UG) for 24 hours at 37° C./5% CO2. Media was exchanged with fresh media with no FBS, and the cells were treated with 50 ng/mL LPS (priming step) (LPS-EK: Invivogen, Cat #tlrl-peklps). The cells were plated at 20,000 cells per well in 384-well flat-bottom cell culture plates (FALCON, Cat #353962) and were incubated for 24 hours at 37° C./5% CO2. Compounds were serially diluted (half log or 5-fold dilutions) with DMSO and were finally diluted with Media with no FBS. The compounds were added to the cells in 384-well plates (added in 1:3) and then the plates were incubated for 30 minutes at 37° C./5% CO2. The NLRP3 inflammasome was activated with the addition of 20 mM ATP (Sigma Cat #A3377-25G) and the cells were incubated for 2 hours at 37° C./5% CO2. At the end of the incubation period, 30 μL supernatant was transferred to another 384-well plate and mixed on a plate shaker for 1 minute. The supernatant was mixed with HTRF Antibody (Human IL1 beta kit, Cisbio, 62HIL1BPEH) in assay plates (Greiner Bio-One, Cat #784075) and the assay plates were incubated in shading box at room temperature for 16-24 hours. HTRF signal was measured by EnVision (Perkinelmer) in accordance with the manufacturer's instructions.
# The percentage of inhibition at 300 nM, 6 μM or 10 μM in the IL-1βTR-FRET assay was calculated by the following formula: Percentage of inhibition=[1−(HTRF signaltest−HTRF signalLow)/(HTRF signalHigh−HTRF signalLow)]*100, where HTRF signaltest is the HTRF signal in the well to which test compound is added, HTRF signalLow is the HTRF signal in the well to which 3 μM MCC-950 is added, and the HTRF signalHigh is the HTRF signal in the well to which DMSO is added.
row,SMILES,inhibition at 0.3 µM
1,"CCOc1nc2nn(-c3c(F)cc(C4(F)CC4)cc3Br)cc2c(=O)[nH]1 [Example 178, 2-[2-bromo-6-fluoro-4-(1-fluorocyclopropyl)phenyl]-6-ethoxy-2,5-dihydro-4H-pyrazolo[3,4-d]pyrimidin-4-one]",101%
2,"Cc1cc(C2CC2)cc(C)c1-n1cc2c(=O)[nH]c(C(C)(C)O)nc2n1 [Example 172, 2-(4-cyclopropyl-2,6-dimethylphenyl)-6-(2-hydroxypropan-2-yl)-2,5-dihydro-4H-pyrazolo[3,4-d]pyrimidin-4-one]",61%
3,"Cc1cc(C2CC2)cc(C)c1-n1cc2c(=O)[nH]c(C3CCCO3)nc2n1 (racemic) [Example 223, 2-(4-cyclopropyl-2,6-dimethylphenyl)-6-(oxolan-2-yl)-2,5-dihydro-4H-pyrazolo[3,4-d]pyrimidin-4-one]",100%
4,"CCOc1nc2nn(-c3c(C)cc(C4CC4)nc3C)cc2c(=O)[nH]1 [Example 174, 2-(6-cyclopropyl-2,4-dimethylpyridin-3-yl)-6-ethoxy-2,5-dihydro-4H-pyrazolo[3,4-d]pyrimidin-4-one]",108%
5,"CCOc1nc2nn(-c3ccc(C4(F)CC4)cc3F)cc2c(=O)[nH]1 [Example 183, 6-ethoxy-2-[2-fluoro-4-(1-fluorocyclopropyl)phenyl]-2,5-dihydro-4H-pyrazolo[3,4-d]pyrimidin-4-one]",96%
6,"COc1nc2nn(-c3c(C)cc(C4CC4)cc3C(F)F)cc2c(=O)[nH]1 [Example 209, 2-[4-cyclopropyl-2-(difluoromethyl)-6-methylphenyl]-6-methoxy-2,5-dihydro-4H-pyrazolo[3,4-d]pyrimidin-4-one]",103%
7,"Cc1cc(C2CC2)cc(C)c1-n1cc2c(=O)[nH]c(-c3cnn(C)c3)nc2n1 [Example 217, 2-(4-cyclopropyl-2,6-dimethylphenyl)-6-(1-methyl-1H-pyrazol-4-yl)-2,5-dihydro-4H-pyrazolo[3,4-d]pyrimidin-4-one]",108%
8,"Cc1cc(Br)cc(C)c1-n1cc2c(=O)[nH]c(-c3ccncn3)nc2n1 [Example 185, 2-(4-bromo-2,6-dimethylphenyl)-6-(pyrimidin-4-yl)-2,5-dihydro-4H-pyrazolo[3,4-d]pyrimidin-4-one]",114%
9,"Cc1ccc(-n2cc3c(=O)[nH]c(OCC(F)F)nc3n2)c(C)c1 [Example 220, 6-(2,2-difluoroethoxy)-2-(2,4-dimethylphenyl)-2,5-dihydro-4H-pyrazolo [3,4-d]pyrimidin-4-one]",71%
10,"Cc1cc(C2CC2)cc(C)c1-n1cc2c(=O)[nH]c(COCC(F)F)nc2n1 [Example 212, 2-(4-cyclopropyl-2,6-dimethylphenyl)-6-[(2,2-difluoroethoxy)methyl]-2,5-dihydro-4H-pyrazolo[3,4-d]pyrimidin-4-one]",103%
11,"Cc1cc(Br)cc(C)c1-n1cc2c(=O)[nH]c([C@H]3CC3(F)F)nc2n1 [Example 189, 2-(4-bromo-2,6-dimethylphenyl)-6-(2,2-difluorocyclopropyl)-2,5-dihydro-4H-pyrazolo[3,4-d]pyrimidin-4-one]",99%
12,"COc1nc2nn(-c3c(OC)cc(C4CC4)cc3C(F)F)cc2c(=O)[nH]1 [Example 169, 2-[4-cyclopropyl-2-(difluoromethyl)-6-methoxyphenyl]-6-methoxy-2,5-dihydro-4H-pyrazolo[3,4-d]pyrimidin-4-one]",103%

# Same assay, conditions: Homo sapiens, THP-1, 6 μM, LPS priming, ATP activation, read-out: IL-1β inhibitory rate at 6 μM (%)
row,SMILES,inhibition at 6 µM
1,"Cc1cc(C2CC2)cc(C)c1-n1cc2c(=O)[nH]c(-c3cn4c(n3)COCC4)nc2n1 [Example 264, 2-(4-cyclopropyl-2,6-dimethylphenyl)-6-(5,6-dihydro-8H-imidazo[2,1-c][1,4]oxazin-2-yl)-2,5-dihydro-4H-pyrazolo[3,4-d]pyrimidin-4-one]",100%
2,"CCOc1nc2nn(-c3c(Br)cc(Br)cc3C(F)F)cc2c(=O)[nH]1 [Example 251, 2-[2,4-dibromo-6-(difluoromethyl)phenyl]-6-ethoxy-2,5-dihydro-4H-pyrazolo[3,4-d]pyrimidin-4-one]",105%
3,"CCOCc1nc2nn(-c3c(F)cc(C4CC4)cc3C(F)F)cc2c(=O)[nH]1 [Example 314, 2-[4-cyclopropyl-2-(difluoromethyl)-6-fluorophenyl]-6-(ethoxymethyl)-2,5-dihydro-4H-pyrazolo[3,4-d]pyrimidin-4-one]",105%
4,"Cc1cc(C2CC2)cc(C)c1-n1cc2c(=O)[nH]c(CN3CCCO3)nc2n1 [Example 237, 2-(4-cyclopropyl-2,6-dimethylphenyl)-6-[(1,2-oxazolidin-2-yl)methyl]-2,5-dihydro-4H-pyrazolo[3,4-d]pyrimidin-4-one]",98%
5,"Cc1cc(C2CC2)cc(C)c1-n1cc2c(=O)[nH]c(C3(C)COC3)nc2n1 [Example 315, 2-(4-cyclopropyl-2,6-dimethylphenyl)-6-(3-methyloxetan-3-yl)-2,5-dihydro-4H-pyrazolo [3,4-d]pyrimidin-4-one]",101%
6,"Cc1cc(C2CC2)cc(C)c1-n1cc2c(=O)[nH]c([C@H]3C[C@H](F)C3)nc2n1 [Example 255, 2-(4-cyclopropyl-2,6-dimethylphenyl)-6-[(1r,3r)-3-fluorocyclobutyl]-2,5-dihydro-4H-pyrazolo [3,4-d]pyrimidin-4-one]",98%
7,"CCOc1c(-n2cc3c(=O)[nH]c(CC)nc3n2)ccc(C2CC2)c1C(F)F [Example 282, 2-[4-cyclopropyl-3-(difluoromethyl)-2-ethoxyphenyl]-6-ethyl-2,5-dihydro-4H-pyrazolo[3,4-d]pyrimidin-4-one]",55%
8,"O=c1[nH]c(C2COCCO2)nc2nn(-c3c(F)cc(C4CC4)cc3C(F)F)cc12 (racemic) [Example 305, 2-[4-cyclopropyl-2-(difluoromethyl)-6-fluorophenyl]-6-(1,4-dioxan-2-yl)-2,5-dihydro-4H-pyrazolo[3,4-d]pyrimidin-4-one]",103%
9,"CCOc1nc2nn(-c3c(Br)cc(C4CC4)cc3C(F)F)cc2c(=O)[nH]1 [Example 250, 2-[2-bromo-4-cyclopropyl-6-(difluoromethyl)phenyl]-6-ethoxy-2,5-dihydro-4H-pyrazolo[3,4-d]pyrimidin-4-one]",103%
10,"Cc1cc(C2CC2)cc(C)c1-n1cc2c(=O)[nH]c(C3C=COCC3)nc2n1 (stereo not shown) [Example 306, 2-(4-cyclopropyl-2,6-dimethylphenyl)-6-(3,4-dihydro-2H-pyran-4-yl)-2,5-dihydro-4H-pyrazolo[3,4-d]pyrimidin-4-one]",98%
11,"Cc1cc(C2CC2)cc(C)c1-n1cc2c(=O)[nH]c(CCOCc3ccccc3)nc2n1 [Example 268, 6-[2-(benzyloxy)ethyl]-2-(4-cyclopropyl-2,6-dimethylphenyl)-2,5-dihydro-4H-pyrazolo[3,4-d]pyrimidin-4-one]",98%
12,"CO[C@H]1C[C@H](Oc2nc3nn(-c4ccc(C)cc4C)cc3c(=O)[nH]2)C1 [Example 244, 2-(2,4-dimethylphenyl)-6-{[(1r,3r)-3-methoxycyclobutyl]oxy}-2,5-dihydro-4H-pyrazolo[3,4-d]pyrimidin-4-one]",100%
13,"Cc1cc(C2CC2)cc(C)c1-n1cc2c(=O)[nH]c([C@H]3CCCCO3)nc2n1 [Example 233, 2-(4-cyclopropyl-2,6-dimethylphenyl)-6-(oxan-2-yl)-2,5-dihydro-4H-pyrazolo[3,4-d]pyrimidin-4-one]",93%
14,"COCc1nc2nn(-c3c(C)cc(C4CC4)cc3CC(F)F)cc2c(=O)[nH]1 [Example 323, 2-[4-cyclopropyl-2-(2,2-difluoroethyl)-6-methylphenyl]-6-(methoxymethyl)-2,5-dihydro-4H-pyrazolo[3,4-d]pyrimidin-4-one]",103%
15,"O=c1[nH]c(COC(F)F)nc2nn(-c3ccc([N+](=O)[O-])cc3C(F)F)cc12 [Example 256, 6-[(difluoromethoxy)methyl]-2-[2-(difluoromethyl)-4-nitrophenyl]-2,5-dihydro-4H-pyrazolo [3,4-d]pyrimidin-4-one]",89%
16,"Cc1cc(C2CC2)cc(C)c1-n1cc2c(=O)[nH]c(-c3ncc(C(F)(F)F)[nH]3)nc2n1 [Example 242, 2-(4-cyclopropyl-2,6-dimethylphenyl)-6-[5-(trifluoromethyl)-1H-imidazol-2-yl]-2,5-dihydro-4H-pyrazolo[3,4-d]pyrimidin-4-one]",104%
